Results taken from PMC9415015, “CK2 Inhibition and Antitumor Activity of 4,7-Dihydro-6-nitroazolo[1,5-a]pyrimidines” (Molecules, 2022).

Columns and labels:
[1] = Solubility noted during the cytotoxicity study; settings: cytotoxicity study limited because of it
human recombinant CK2α1 = target: T1, human recombinant CK2α1 (Homo sapiens, UniProt P68400); assay: CK2 ADP-Glo kinase assay; format: biochemical; settings: for Effect on CK2 activity in initial screening (in words): initial screening at 50 μM
T1 construct: purchased Promega V4482
T1 sequence (P68400 whole entry): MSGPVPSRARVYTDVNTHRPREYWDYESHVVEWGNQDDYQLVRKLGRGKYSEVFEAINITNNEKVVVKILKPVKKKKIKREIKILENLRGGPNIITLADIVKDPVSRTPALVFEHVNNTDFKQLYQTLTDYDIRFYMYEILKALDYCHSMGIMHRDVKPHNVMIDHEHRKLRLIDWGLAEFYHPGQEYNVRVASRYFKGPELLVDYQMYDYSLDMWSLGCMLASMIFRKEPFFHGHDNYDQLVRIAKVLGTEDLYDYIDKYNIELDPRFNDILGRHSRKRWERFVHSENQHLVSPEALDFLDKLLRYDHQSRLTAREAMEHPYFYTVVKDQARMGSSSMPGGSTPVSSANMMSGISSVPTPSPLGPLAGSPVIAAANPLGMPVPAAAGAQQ
Procedure: Kinase activity was determined using the enzyme system CK2α1 (Promega V4482, Madison, WI, USA) and the ADP-Glo^TM kit (Promega V9101, Madison, WI, USA) in white 96-well plates (Nunc U96 Microwell 267350, Denmark). The reaction was carried out using 50 ng/well of N-GST labeled human recombinant CK2α1, 0.1 µg/µL bovine casein as a substrate, 10 μM ATP in 40 mM Tris buffer solution (pH 7.50) containing 20 mM MgCl2, 0.1 mg/mL of BSA, and 50 μM of DTT. Test compounds were added to 1.25% DMSO (final concentration 0.25%) and preincubated with kinase for 10 min. The reaction was carried out for 60 min at 25 °C in a thermostatically controlled PST-60HL shaker (Biosan. […], Latvia). ATP-dependent luminescence was measured at an integration time of 1000 ms using the Infinite M200 PRO microplate reader (Tecan. Austria). The ATP-competitive inhibitor Staurosporin (CAS 62996–74-1, Alfa Aesar J62837, 99+%) was used as a positive control. The experiments were performed in two parallels.

Hek-293 cells = assay: MTT test, human embryonic kidney cells; format: cell-based; settings: 72 h incubation
Procedure: (§1) The studies were carried out on cultured cells of human glioblastoma (A-172, ATCC CRL 1620), human osteosarcoma (Hos, ATCC CRL 1543), human embryonic rhabdomyosarcoma (Rd, ATCC CRL 136), and human embryonic kidney 293 cells (Hek-293, ATCC CRL 1573) obtained from the Shared research facility “Vertebrate cell culture collection” (Institute of Cytology RAS, Saint-Petersburg, Russia). The cells were cultured using DMEM / F-12 medium containing 10% fetal bovine serum at 37°C, 5% CO2, and 98% humidity. Subculturing was performed using 0.25% trypsin solution when the culture reached ≥90% confluency.
(§2) The compounds were dissolved in DMSO. The solutions were diluted with DMEM/F-12 culture medium with 10% fetal bovine serum to the studied concentrations: 8, 16, 32, 64, 128, 256, 512, and 1024 µM. […] Cisplatin (cPt) was used as a positive control.
(§3) Cells were seeded in 96-well plates at a concentration of 4 × 10^3 cells per well. After 24 h, test compounds were added to the wells in a given concentration range. Then the cells were incubated for 72 h, after which a solution of MTT (3-(4,5-dimethyl-2-thiazolyl)-2,5-diphenyl-2H-tetrazolium bromide) was added to the cultures at 20 µL (5 mg/mL) to the well. After 2.5 h, the medium was removed from the wells and 200 µL of a mixture of DMSO/i-PrOH 1/1 was added. Optical density was measured on a plate spectrophotometer at a wavelength of 570 nm.
(§4) Statistical data processing was carried out in the RStudio program (Version 1.4.1106 © […] RStudio, PBC, Boston, MA, USA) using the R package (version 4.1.2). The cytotoxicity index (IC50) was calculated by plotting dose–response curves using the “drc” package.

Rd cells = assay: MTT test, embryonic rhabdomyosarcoma cells; format: cell-based, human; settings: for Cytotoxicity index IC50 ± SE, Rd: MTT, 72 h incubation
Procedure: as §1, §2, §3, §4

A-172 cells = assay: MTT test, glioblastoma cells; format: cell-based, human; settings: for Cytotoxicity index IC50 ± SE, A-172: MTT, 72 h incubation
Procedure: as §1, §2, §3, §4

Hos cells = assay: MTT test, osteosarcoma cells; format: cell-based, human; settings: for Cytotoxicity index IC50 ± SE, Hos: MTT, 72 h incubation
Procedure: as §1, §2, §3, §4

[2] = system: A-172, Rd, Hos and Hek-293 cells; assay: MTT test, all four cell lines together; format: cell-based; settings: Homo sapiens, read-out: IC50 in all cases
Procedure: as §1, §2
(§5) Cells were seeded in 96-well plates at a concentration of 4 × 10^3 cells per well. After 24 h, test compounds were added to the wells in a given concentration range. […] Optical density was measured on a plate spectrophotometer at a wavelength of 570 nm.
as §4

[3] = system: tumor cells A-172, Rd, and Hos; assay: MTT test, tumor cell lines together; format: cell-based; settings: Homo sapiens, A 172, MTT, across A-172, Rd, 50 µM bound holds 'mostly'
Procedure: as §1, §2, §5, §4

| SMILES | Effect on CK2 activity in initial screening (in words) (human recombinant CK2α1) | IC50 [3] [µM] | Solubility (in words) [1] | melting point | Cytotoxicity index IC50 ± SE, Hek-293 (Hek-293 cells) [µM] | Cytotoxicity index IC50 ± SE, Rd (Rd cells) [µM] | Cytotoxicity index IC50 ± SE, A-172 (A-172 cells) [µM] | inhibition at 50 µM (human recombinant CK2α1; 50 μM compound, 10 μM ATP, n.a. = not active, read-out: CK2 Inhibition at 50 μM, m ± SD (%)) [%] | Cytotoxicity index IC50 ± SE, Hos (Hos cells) [µM] | IC50 [2] [µM] | Selectivity ratio SR (RD) (Rd cells; normal/cancer cell (Hek-293 vs Rd)) | Selectivity ratio SR (A-172) (A-172 cells; normal/cancer cell (Hek-293 vs A-172)) | Selectivity ratio SR (HOS) (Hos cells; normal/cancer cell (Hek-293 vs Hos)) |
| --- | --- | --- | --- | --- | --- | --- | --- | --- | --- | --- | --- | --- | --- |
| O=[N+]([O-])C1=CNc2ccnn2C1c1ccccc1 (stereo not shown) [Compound 5a, 6-Nitro-7-phenyl-4,7-dihydropyrazolo[1,5-a]pyrimidine] | paradoxically enhance CK2 activity | – | low solubility | – | – | – | – | – | – | – | – | – | – |
| CC1=C([N+](=O)[O-])C(c2ccc([N+](=O)[O-])cc2)n2nccc2N1 (stereo not shown) [Compound 5c, 6-Nitro-5-methyl-7-(4ʹ-nitrophenyl)-4,7-dihydropyrazolo[1,5-a]pyrimidine] | paradoxically enhance CK2 activity | – | low solubility | – | – | – | – | – | – | – | – | – | – |
| CCC1=C([N+](=O)[O-])C(c2ccc(OC)cc2)n2ncc(C#N)c2N1 (stereo not shown) [Compound 5i, 3-Cyano-5-ehtyl-6-Nitro-7-(4ʹ-metoxyphenyl)-4,7-dihydropyrazolo[1,5-a]pyrimidine] | – | – | – | 249 °C (dec.) | 69.52 ± 8.69 | 105.10 ± 10.70 | 145.19 ± 8.96 | 3.66 ± 37.6 | 88.44 ± 5.85 | – | – | – | – |
| CCC1=C([N+](=O)[O-])C(c2ccc(O)c(OC)c2)n2ncc(C#N)c2N1 (stereo not shown) [Compound 5j, 3-Cyano-5-Ethyl-6-nitro-7-(3ʹ-methoxy-4ʹ-hydroxyphenyl)-4,7-dihydropyrazolo[1,5-a]pyrimidine] | – | – | – | – | 581.39 ± 43.90 | 673.44 ± 20.70 | 566.09 ± 17.12 | – | 522.38 ± 16.16 | > 400 | – | – | – |

Further lines, with some results ahead:

| Effect on CK2 activity in initial screening (in words) (human recombinant CK2α1) | IC50 [3] [µM] | SMILES | Solubility (in words) [1] | melting point | Cytotoxicity index IC50 ± SE, Hek-293 (Hek-293 cells) [µM] | Cytotoxicity index IC50 ± SE, Rd (Rd cells) [µM] | Cytotoxicity index IC50 ± SE, A-172 (A-172 cells) [µM] | inhibition at 50 µM (human recombinant CK2α1; 50 μM compound, 10 μM ATP, n.a. = not active, read-out: CK2 Inhibition at 50 μM, m ± SD (%)) [%] | Cytotoxicity index IC50 ± SE, Hos (Hos cells) [µM] | IC50 [2] [µM] | Selectivity ratio SR (RD) (Rd cells; normal/cancer cell (Hek-293 vs Rd)) | Selectivity ratio SR (A-172) (A-172 cells; normal/cancer cell (Hek-293 vs A-172)) | Selectivity ratio SR (HOS) (Hos cells; normal/cancer cell (Hek-293 vs Hos)) |
| --- | --- | --- | --- | --- | --- | --- | --- | --- | --- | --- | --- | --- | --- |
| paradoxically enhance CK2 activity | – | O=[N+]([O-])C1=CNc2ncnn2C1c1ccccc1 (stereo not shown) [Compound 6a, 6-Nitro-7-phenyl-4,7-dihydro-1,2,4-triazolo[1,5-a]pyrimidine] | – | – | 1131.79 ± 77.86 | 448.21 ± 22.53 | 434.08 ± 18.02 | – | 542.85 ± 21.45 | > 400 | – | – | – |
| paradoxically enhance CK2 activity | ≤ 50 | CC1=C([N+](=O)[O-])C(c2ccccc2)n2nc(C(F)(F)F)nc2N1 (stereo not shown) [Compound 6d, 5-Methyl-6-nitro-7-phenyl-2-trifluoromethyl-4,7-dihydro-1,2,4-triazolo[1,5-a]pyrimidine] | – | 233 to 235 °C | 50.07 ± 4.43 | 37.28 ± 3.77 | 27.49 ± 1.67 | – | 23.31 ± 1.84 | – | 1.3 | 1.8 | 2.1 |
